In patent US20130089510A1, “OTIC COMPOSITIONS FOR THE TREATMENT OF INFECTIONS OF THE INTERNAL AND EXTERNAL EAR IN MAMMALS” (Foresight Biotherapeutics, Inc., priority 2008, published 2013):

Columns and labels:
[1] = Reactivity/compatibility of PVP-I with other active ingredients
[2] = tested on: external ear; details: in vivo; cited from earlier work

Compound | consumption of the agent on reaction with PVP-I ([1]; mixed with PVP-I) | available iodine in the PVP-I complex ([1]; with Ketorolac, depending on the ratio between Ketorolac and PVP-I) | concentration known to be safe for use in the external ear (and inner ear through a ruptured tympanic membrane) [2]
O=C(c1ccccc1)c1ccc2n1CCC2C(=O)O (stereo not drawn) [Ketorolac] | completely consumed | – | –
1-Vinyl-2-pyrrolidinone polymers, iodine complex [PVP-I] | – | reduced significantly | up to 10.0 % (w/w, aqueous)
